The values below come from publication PMC4411300, “Reconstitution and structure of a bacterial Pnkp1–Rnl–Hen1 RNA repair complex” (Nature Communications, 2015).

For assay [1], the target named is Hen1 in the Pnkp1–Rnl–Hen1 heterohexamer (CgiHen1) (Capnocytophaga gingivalis, UniProt Z9ZGS5E134). Briefly: X-ray crystal structure, […] Å, co-purified ligand. The following applies: methyltransferase active site of Hen1; retained from E. coli expression, not added; weak density, low occupancy. The class given is binding.
Assay [2] deals with Capnocytophaga gingivalis Pnkp1 (Capnocytophaga gingivalis). Briefly: SEC; purified proteins analysed singly, or two proteins combined in equimolar and incubated at 4 °C for an hour before size-exclusion chromatography. Background: SEC sorts molecules by how far they enter the pores of the column.

Turning to `Nc1ncnc2c1ncn2[C@@H]1O[C@H](CSCC[C@H](N)C(=O)O)[C@@H](O)[C@H]1O` [SAH], the “X-ray crystal structure, 3.4 Å, co-purified ligand” value in assay [1] is given as “SAH was modelled in the methyltransferase active site of Hen1-b”. Consider “Capnocytophaga gingivalis Pnkp1 (enzyme)”, for which the stoichiometry N in assay [2] is 2.

A word on the stoichiometry N: it is a count of units in the complex or per binding partner.
